Our source for the MIC values is patent publication US4183920A, “4-N-Acyl, 2'-N-acyl and 4,2'-N,N'-diacylfortimicin E derivatives” (Abbott Laboratories, priority 1977, dated 1980).

What all share (assay): In vitro antibiotic activity, 2-fold agar dilution method
Format in all cases: cell-based
For orientation: In agar dilution the substance is mixed into plates at graded concentrations.

Assay [1] has as its system Strep. faecalis 10541. The method, then:
(§1) The in vitro antibiotic activity is determined by a 2-fold agar dilution method using 10 ml. per petri plate of Mueller-Hinton agar. The agar is inoculated with one loopful (0.001 ml. loop) of a 1:10 dilution of a 24 hour broth culture of the indicated test organism and incubated at 37° C. for 24 hours. Minimum inhibitory concentrations (MIC) are expressed as mcg/ml.

In assay [2] the test system is Pseudo aeruginosa. The method, then: as §1
Assay [3] has as its system Shigella sonnei 9290. The note with it: Mueller-Hinton agar, 37° C., 24 hours. The method, then: as §1
Assay [4] has as its system Bacillus subtilus U. Ill. 10707. The method, then: as §1
In assay [5] the test system is Staph aureus Smith. Conditions: Staphylococcus aureus. The method, then: as §1
The subject of assay [6] is Kleb. pneumoniae KY 4262. The note with it: Klebsiella pneumoniae. The method, then:
as §1

Assay [7] concerns E. coli Juhl. The note with it: Escherichia coli. The method, then:
as §1

Assay [8] relates to Proteus vulgaris JJ. The method, then:
as §1

Assay [9] concerns E. coli R3. Conditions: Escherichia coli. The method, then: as §1
In assay [10] the test system is Sal. typhimurium Ed #9. Conditions: Salmonella enterica. The method, then:
as §1

Setting [11] is: Enterococcus faecalis, Strep. faecalis 10541, Mueller-Hinton agar, 37° C., 24 hours, read-out: MIC.
[12] abbreviates: Pseudo aeruginosa, Mueller-Hinton agar, 37° C., 24 hours, read-out: MIC.
The mark [13] stands for this setting: Bacillus subtilus U. Ill. 10707, Mueller-Hinton agar, 37° C., 24 hours, read-out: MIC.
The mark [14] stands for this setting: Staph aureus Smith, Mueller-Hinton agar, 37° C., 24 hours, read-out: MIC.
[15] abbreviates: KY4262, Kleb. pneumoniae KY 4262, Mueller-Hinton agar, 37° C., 24 hours, read-out: MIC.
Where [16] appears, read: E. coli Juhl, Mueller-Hinton agar, 37° C., 24 hours, read-out: MIC.
[17] abbreviates: Proteus vulgaris JJ, Mueller-Hinton agar, 37° C., 24 hours, read-out: MIC.
Where [18] appears, read: E. coli R3, Mueller-Hinton agar, 37° C., 24 hours, read-out: MIC.
Setting [19] is: Sal. typhimurium Ed #9, Mueller-Hinton agar, 37° C., 24 hours, read-out: MIC.

Broadly, the MIC is the least concentration at which growth counts as inhibited.

Where a name gives a salt, the structure may show the parent alone. Read-outs that look alike come from different tables or passages of the source. Where only a bound is given, the exact number is not on record here.

With `CNCC(=O)N(C)C1C(O)C(OC2OC(C(C)N)CCC2N)C(N)C(O)C1OC` (stereo not shown) [4-N-sarcosylfortimicin E tetrahydrochloride salt], the minimal inhibitory concentration (MIC) in assay [1] (setting [11]) was more than 100 µg/mL; in [2] (setting [12]), more than 100 µg/mL; in [3] it was 100 µg/mL; in [4] (setting [13]), 6.25 µg/mL; in assay [5] (setting [14]), 25 µg/mL; in assay [6] (setting [15]), 100 µg/mL. In addition, the MIC in assay [7] (setting [16]) was 50 µg/mL; in assay [8] (setting [17]) it was more than 100 µg/mL; in [9] (setting [18]) it was more than 100 µg/mL; in [10] (setting [19]), 50 µg/mL.

`COC1C(O)C(N)C(OC2OC(C(C)N)CCC2N)C(O)C1N(C)C(=O)[C@@H](O)CCN` (stereo partly drawn) [4-N-L-(2-hydroxy-4-amino)butyrylfortimicin E tetrahydrochloride salt]: the MIC is more than 100 µg/mL in assay [1] (setting [11]); more than 100 µg/mL in assay [2] (setting [12]); more than 100 µg/mL in assay [3]; 12.5 µg/mL in assay [4] (setting [13]); 25 µg/mL in assay [5] (setting [14]); 50 µg/mL in assay [6] (setting [15]). The MIC in [7] (setting [16]) is 50 µg/mL; in assay [8] (setting [17]), more than 100 µg/mL; in [9] (setting [18]), more than 100 µg/mL; in [10] (setting [19]), 100 µg/mL.

Consider `COC1C(O)C(N)C(OC2OC(C(C)N)CCC2N)C(O)C1N(C)C(=O)CN` (stereo not shown) [4-N-glycylfortimicin E tetrahydrochloride salt], for which the MIC in assay [1] (Enterococcus faecalis, 10541, 24 h) is more than 100 µg/mL; in assay [2] (24 h), more than 100 µg/mL; in assay [3] it was 25 µg/mL; in [4] (Bacillus, U.ILL.10707, 24 h) it was 12.5 µg/mL; in assay [5] (24 h), 6.25 µg/mL; in [6] (KY4262, 24 h), 25 µg/mL. Further, the MIC is 6.25 µg/mL in assay [7] (24 h); more than 100 µg/mL in assay [8] (Proteus vulgaris, 24 h); more than 100 µg/mL in assay [9] (R3, 24 h); 25 µg/mL in assay [10] (TYPHIMURIUM, 24 h).

Take `COC1C(O)C(N)C(OC2OC(C(C)N)CCC2N)C(O)C1N(C)C(=O)CCN` (stereo not drawn) [4-N-β-alanylfortimicin E tetrahydrochloride salt]: the MIC in assay [1] (setting [11]) was more than 100 µg/mL; in [2] (setting [12]) it was more than 100 µg/mL; in assay [3] it was more than 100 µg/mL; in assay [4] (setting [13]), 12.5 µg/mL; in assay [5] (setting [14]), 12.5 µg/mL; in assay [6] (setting [15]) it was 25 µg/mL. In addition, the MIC in assay [7] (setting [16]) is 25 µg/mL; in assay [8] (setting [17]), more than 100 µg/mL; in assay [9] (setting [18]), more than 100 µg/mL; in [10] (setting [19]), 25 µg/mL.
